From patent publication US20230320986A1, “TARGETED ANT[…] SYSTEM FOR CANCER TREATMENT” (priority 2020, published 2023)

Assays:
M21 cells = experiment: Cytotoxicity in cultured cells; assay type: cell-based, human; conditions: 25 µM drug, 30 min treatment
Protocol: (§1) For assessment of the UTO cytotoxicity the cytotoxicity of RPAR-UTO-PS, UTO-PS, PS, free UTO, and free DOX in cultured PPC-1 (FIG. 4) and M21 (FIG. 5) cells after 30 min treatment over a range of drug concentrations was tested.

PPC-1 cells = experiment: Cytotoxicity in cultured cells; assay type: cell-based, human; conditions: 30 min treatment
Protocol: as §1

[1] = Encapsulation efficiency in polymersomes (section 3.2); assay type: physicochemical; conditions: thin-film hydration, after size exclusion chromatography
Protocol: For the encapsulation of the drug inside PS, 50 nmols of drug were dissolved in 100 µL of acetone and added to the polymers dissolved in acetone (total amount of polymer was 5 mg). The acetone was evaporated to form the polymer/drug film and the PS were formed as described above.
PS were purified by size exclusion chromatography. Agarose beads with a diameter of 45-165 µm ([…] 4B gel) were used as stationary phase. The height of the Sephadex gel in a column was 8 cm (volume 25.13 mL). The PS sample was eluted with PBS pH 7.4.
The amount of encapsulated drug was quantified using a Nanodrop 2000c UV-VIS spectrophotometer (Thermo Scientific, USA). For drug quantification, serial dilutions of drug in MeOH:water 1:1 were prepared and the absorbance at 490 nm was measured. Using gathered data, the linear trend line was constructed in MS Excel program and the formula was further used to evaluate the concentration of drug inside PS.
For assessment of the UTO encapsulation efficiency the above depicted anthracycline derivative was encapsulated in a PS using a thin-film hydration method. After encapsulation the sample was purified by size exclusion chromatography to remove non-encapsulated drug. […]

[2] = Encapsulation efficiency, comparison PS-UTO vs. PS-DOX (section 4); assay type: physicochemical; conditions: PEG-PCL-PS
Protocol: Polymersomes were prepared by dissolving 5 mg of PEG-PCL in 0.3 mL acetone. The acetone was evaporated with nitrogen flow forming a thin polymeric film on the wall of the glass vial. The film was hydrated with 0.5 mL of PBS pH 7.4 previously purged with nitrogen flow, heated for 30 seconds in a 65° C. water bath, and sonicated for 30 seconds. The heating and sonication steps were repeated until the PS were formed and polymer aggregates were not observed in the suspension. The final volume of PS samples was 0.5 mL and the total polymer concentration 10 mg/mL.
For the PS encapsulation of UTO […] of UTO were dissolved in 100 µL of acetone (0.5 mM concentration) and added to the polymers dissolved in acetone (total amount of polymer - 5 mg, UTO concentration 0.125 mM). The acetone was evaporated to form the polymer/drug film and the PS were formed as described above.
For DOX encapsulation the polymeric film was hydrated with 2 mM DOX solution in PBS pH 7.4 and the PS were formed as described above. […]
The UTO and DOX PS-encapsulated amounts were quantified using UV-VIS spectrometry (Thermo Scientific, USA). For UTO quantification, serial dilutions of UTO in MeOH:water 1:1 were prepared and the absorbance at 485 nm was used for calibration. For DOX quantification, serial dilutions of DOX in PBS were prepared and also the absorbance at 485 nm was measured. […]

[3] = Cumulative drug release from polymersomes; assay type: physicochemical; conditions: after 48 h, 37° C., PBS
Protocol: To further evaluate the UTO and DOX cumulative release behavior from polymersomes, UTO-and DOX-loaded PS were incubated at 37° C. in PBS (0.25 mL) for different time periods (0; 1; 4; 24; and 48 h). The samples were centrifuged using Amicon Ultra centrifugal filters (MWCO 100 kDa) for 20 min at 6,000 g at RT. The fluorescence of the filtrates was measured at 485 nm/535 nm (0.1 s) using a Victor X5 Multilabel Microplate Reader (Perkin Elmer, USA) to quantify the released drug amount.

Structure (SMILES)	cell viability (M21 cells)	cell viability (PPC-1 cells; 2.5 µM drug)	cell viability (PPC-1 cells; 25 µM drug)	encapsulation efficiency (EE) [1]	encapsulation efficiency, times lower compared to UTO [2]	encapsulation efficiency (EE) ([2]; film hydration, after purification)	drug released from the PS [3]	viability at 25 µM (M21 cells; Homo sapiens, 0.5 h, read-out: cell viability)	viability at 2.5 µM (PPC-1 cells; Homo sapiens, 0.5 h, 2.5 µM drug, read-out: cell viability)	viability at 25 µM (PPC-1 cells; Homo sapiens, 0.5 h, 25 µM drug, read-out: cell viability)
COc1cccc2c1C(=O)c1c(O)c3c(c(O)c1C2=O)C[C@@](O)(C(=O)CO)C[C@@H]3O[C@H]1C[C@H](N)[C@H](O)[C@H](C)O1 [DOX, doxorubicin]	58%	87%	56%	1%	approximately 20 times	2.3%	approximately 10%			
CC(=O)OCOC(=O)N1CO[C@@H]2[C@H](C)O[C@@H](O[C@H]3C[C@](N)(C(C)O)Cc4c(O)c5c(c(O)c43)C(=O)c3ccccc3C5=O)C[C@@H]21 (some centres unmarked) [UTO]							less than 3%	15%	68%	14%
